Patent US11834698B2, “Process for determining enzyme activity in a cell by activity-based reporter gene technology (ABRGT)” (INDIAN INSTITUTE OF SCIENCE EDUCATION AND RESEARCH, priority 2018, dated 2023)
Peptide text beside a SMILES is read from it. * marks the point of attachment. Cbz = O=C(OCc1ccccc1)*; CH2F = FC*

What was measured:
[1] = target: T1, caspase-7 GFPspark (Homo sapiens, UniProt P55210); assay: AbRGT FRET imaging / acceptor photobleaching, caspase-7 GFPspark in MCF-7 cells; assay type: cell-based; details: for effect of inhibitor on FRET signal / signal in Rh channel in presence of inhibitor: MCF-7, inhibitor 50 μM pre-treatment, STS 6 h, probe 1
T1 construct: host or cells: MCF-7, HEK-293
T1 sequence (P55210 24-198 limits assumed): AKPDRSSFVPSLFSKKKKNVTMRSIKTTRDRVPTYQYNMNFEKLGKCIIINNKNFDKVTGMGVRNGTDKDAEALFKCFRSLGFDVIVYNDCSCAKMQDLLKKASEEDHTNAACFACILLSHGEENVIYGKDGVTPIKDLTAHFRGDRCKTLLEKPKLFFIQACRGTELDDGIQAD
T1 sequence (P55210 207-303 limits assumed): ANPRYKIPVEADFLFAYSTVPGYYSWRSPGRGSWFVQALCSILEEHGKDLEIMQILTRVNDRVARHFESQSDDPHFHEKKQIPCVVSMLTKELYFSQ
Description: FIGS. 13A and 13B depict specific detection of caspase-7 GFPspark in MCF-7 cells. […] Cells were fixed and the fluorescence signal was collected in GFP, FRET and Rh channel. […] Bar graph representing the rise in GFP intensity in ROI after rhodamine photobleaching was 89 a.u. as compared to the unbleached background, i.e., 9 a.u. FRET efficiency was calculated to be 32±2%.
FIG. 15 depicts confocal images of MCF-7 cells in GFP, FRET and Rh channel Caspase-7 GFPspark transfected MCF-7 cells were treated with STS (1 μM) for 6 h and labelled (a) (i) with probe 1 (1 μM) probe. Cells were pre-treated with (a) (ii) Z-VAD-FMK (50 μM) or (a) (iii) Q-VD-OPh (50 μM) pan-caspase inhibitors 1 h before the probe labelling. Caspase-9 GFPspark transfected MCF-7 cells were treated with STS (1 μM) for 4 h and labelled (b) (i) with probe 1 (1 μM) probe. Cells were pre-treated with (b) (ii) Z-VAD-FMK (50 μM) 1 h before probe labelling. Caspase-8 GFPspark overexpressing HEK-293 cells were treated with TRAIL (1 μg/ml) for 5 h and labelled (c) (i) with the probe 1. Cells were pre-treated with (c) (ii) Z-VAD-FMK (50 μM) 1 h before probe labelling.
(§1) Plasmids and transient transfection: GFPspark tagged plasmids; caspase-3 GFPspark tag (Cat: HG10050-ACG), caspase-7 GFPspark tag (HG10049-ACG), caspase-8 GFPspark (HG10078-ACG), caspase-9 GFPspark (HG11151-ACG) and cathepsin B GFPspark (HG10483-ACG) were procured from Sino Biological. For transfection, cells were seeded in a 6-well plate at a density of 0.4 million cells/well. At 60-70% confluency, cells were transiently transfected for 24 h at 37° C. with 1 μg of the GFPspark tagged plasmid DNA construct mixed with 5 μL of Lipofectamine 2000 (Invitrogen) according to the manufacturer's instructions. 24 h post-transfection, cells were visualized under the GFP filter for GFPspark expression under fluorescence microscope at 10× magnification.
Labelling of active caspases in apoptotic cells with FABP: After 24 h of transfection, cells were treated with STS (1 μM) drug or TRAIL (1 μg/ml) for apoptotic induction and incubated for 2, 4, 6 and 8 h at 37° C. in a humidified atmosphere of 5% CO2/95% air. Cells were gently scraped off from the surface at the end of apoptotic induction and centrifuged at 3000 rpm for 5 min. The cell pellet was resuspended in 300 μL of fresh DMEM containing 1 μM of probe for probe 2 and incubated for additional 2 h at 37° C. in a humidified atmosphere of 5% CO2. Cells were again centrifuged at 3000 rpm for 5 mins, and the supernatant was decanted. Cells were washed with 1×PBS, thrice finally resuspended in 20 μL of 1×PBS. The cell suspension was put on a slide, and a coverslip was placed over it. It was left for air drying. Slides were then imaged for GFP, FRET and rhodamine fluorescence signals under confocal microscopy.
Inhibitor assay: Cells were pre-treated with 50 μM of Z-VAD-FMK or Q-VD-OPh or E-64 inhibitor 1 h before probe 1 labelling and incubated for 1 h at 37° C. in a humidified atmosphere of 5% CO2. Cells were gently scraped off from the surface at the end of inhibitor treatment and centrifuged at 3000 rpm for 5 min Cells were then labelled with the probe 1 as described in the previous section.
(§2) Fluorescence imaging studies, FRET procedure: Images were collected on Zeiss LSM710 confocal microscope with 25 mW argon laser using Zen10 software. The laser was tuned to lines at 488 nm (excitation laser for GFPspark) and 561 nm (excitation laser for rhodamine) Cells were examined with a 40× 1.3 NA Zeiss oil immersion objective and 2.4× zoom. Images were collected in the three channels; GFP channel, argon laser tuned at 488 nm with 2% laser intensity and fluorescence emission was collected in emission range of 490-550 nm; rhodamine channel, argon laser tuned to 561 nm laser with 2% laser intensity and fluorescence emission was collected in range 550-650 nm and FRET channel with excitation laser of GFPSPARK channel and emission range of rhodamine channel. […]

[2] = target: T1, caspase-7 GFPspark; assay: AbRGT FRET imaging / acceptor photobleaching, caspase-7 GFPspark in HEK-293 cells; assay type: cell-based
Description: FIGS. 14A and 14B depict specific detection of caspase-7 GFPspark in HEK-293 cells. Caspase-7 GFPspark (1 μg) transfected HEK-293 cells were treated with STS (1 μM) for 10 h and labelled with the probe 1 (1 μM) for 2 h. […] The acceptor photobleaching experiment was performed to confirm the FRET signal as described previously. Bar graph representing a rise in GFP intensity in ROI after rhodamine photobleaching was 87 a.u. as compared to the unbleached background, i.e., 13 a.u. FRET efficiency was calculated to be 33±2%.
as §1, with “At 60-70% confluency, cells were transiently transfected for 24 h at 37° C. with 1 μg of the GFPspark tagged plasmid DNA construct mixed with 5 μL of Lipofectamine 2000 (Invitrogen) according to the manufacturer's instructions.” left out
Labelling of active caspases in apoptotic cells with FABP: After 24 h of transfection, cells were treated with STS (1 μM) drug or TRAIL (1 μg/ml) for apoptotic induction and incubated for 2, 4, 6 and 8 h at 37° C. in a humidified atmosphere of 5% CO2/95% air. […] Slides were then imaged for GFP, FRET and rhodamine fluorescence signals under confocal microscopy. […]
as §2, with “The laser was tuned to lines at 488 nm (excitation laser for GFPspark) and 561 nm (excitation laser for rhodamine) Cells were examined with a 40× 1.3 NA Zeiss oil immersion objective and 2.4× zoom.” left out

[3] = HEK-293, STS 1 μM 10 h, probe 1 μM 2 h

effect of inhibitor on FRET signal [1]	signal in Rh channel in presence of inhibitor [1]	effect of inhibitor on FRET signal ([2]; HEK-293, inhibitor 50 μM pre-treatment, STS 10 h)	Compound	calculated FRET efficiency [2, 3] [%]	rise in GFP intensity in ROI after rhodamine photobleaching [2, 3] [a.u.]	rise in GFP intensity in ROI after rhodamine photobleaching ([1]; MCF-7, STS 1 μM 5 h, probe 1 μM) [a.u.]	calculated FRET efficiency ([1]; MCF-7, STS 1 μM 5 h or 6 h, probe 1 μM) [%]
abolished	significant punctate labelling	–	CC(C)[C@H](NC(=O)c1ccc2ccccc2n1)C(=O)N[C@@H](CC(=O)O)C(=O)COc1c(F)cccc1F [Q-VD-OPh]	–	–	–	–
–	–	–	Rhodamine-VAD-fluoromethyl ketone [probe 1]	33±2	87	89	32±2
completely abolished	completely abolished	abolished	COC(=O)C[C@H](NC(=O)[C@H](C)NC(=O)[C@@H](NC(=O)OCc1ccccc1)C(C)C)C(=O)CF [Z-VAD-FMK] (Cbz-Val-Ala-Asp(OMe)-CH2F)	–	–	–	–
